pEC50: −log10 of the molar value.
biological target: T1, GPR40 (Homo sapiens, UniProt O14842); experiment: IP1 accumulation assay (Cisbio IP-One HTRF) in HEK293 cells stably expressing GPR40; format: cell-based; conditions: HEK293 cells stably expressing GPR40, 37° C. for 2 hours, % Effect relative to AMG-1638 positive control
T1 construct: expressed in transfected cells
Procedure: IP1 accumulation assay was used to evaluate the potency of compounds. HEK293 cells stably expressing GPR40 were cultured in 5% CO2 incubator (ThermoFisher) in maintenance media (Dulbecco's modified Eagle's medium with 4.5 g/L of glucose, 10% fetal bovine serum, 100 μg/mL Hygromycin, and Penicillin (100 U/mL)/Streptomycin (100 μg/mL)) till 100% confluency. Cells were harvested freshly, spun down at 300×g for 5 min, and resuspended in pre-warmed 1× stimulant buffer from Cisbio IP-One HTRF Detection kit (Cisbio). Cell density was adjusted to 2.0×10^6 cells/mL. DMSO was used as blank control and AMG-1638 (CAS #: 1142214-62-7) as positive control. Compounds were prepared at 10 mM in DMSO and 5 nL of 3× serially diluted compounds (10 concentrations) were added to each well of the 384-LDV assay plate (Corning) by using ECHO 550 (Labcyte). Five μL of cells in suspension were transferred into each well by using Multidrop Combi Reagent Dispenser (ThermoFisher). Assay plate was then sealed and incubated at 37° C. for 2 hours. IP-d2 reagent and anti-IP1 reagent were prepared following the manual (Cisbio). Five μL of IP1-d2 and then 5 μL of anti-IP1 antibody was added to each well sequentially. Assay plate was incubated at room temperature for 60 min and then read at 665 nm/615 nm on an Envision plate reader (PerkinElmer). The ratio of values obtained at 665 nm and 615 nm was used for calculation of IP1 accumulation: % Effect=(Ratiosample−Ratioblank)/(RatioAMG-1638−Ratioblank)×100. Dose curve was fitted and EC50 of each compound was calculated by using XLFit.

T1 sequence (O14842 whole entry): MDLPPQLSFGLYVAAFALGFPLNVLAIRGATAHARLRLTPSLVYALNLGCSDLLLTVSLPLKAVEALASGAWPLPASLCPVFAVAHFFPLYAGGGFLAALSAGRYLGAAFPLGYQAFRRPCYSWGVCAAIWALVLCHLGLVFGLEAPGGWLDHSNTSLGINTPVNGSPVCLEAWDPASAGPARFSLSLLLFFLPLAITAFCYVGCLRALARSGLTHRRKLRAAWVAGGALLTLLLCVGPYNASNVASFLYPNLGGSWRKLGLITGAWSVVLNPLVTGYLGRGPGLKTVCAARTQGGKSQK

| Compound | pEC50 |
| --- | --- |
| CCCCCCn1cc(C(C)(C)c2cc(COc3cccc([C@@H](CC(=O)O)C4CC4)c3)ccc2-c2cc(OC)ccc2F)nn1 [Compound No. 219, (S)-3-cyclopropyl-3-(3-{2′-fluoro-2-[1-(1-hexyl-1H-[1,2,3]triazol-4-yl)-1-methyl-ethyl]-5′-methoxy-biphenyl-4-ylmethoxy}-phenyl)-propionic acid] | 6.00 to 6.60 |
| COc1ccc(F)c(-c2ccc(COc3cccc([C@@H](CC(=O)O)C4CC4)c3)cc2C(C)(C)n2cc(CCCCCCCCCCCCCCCCCC(=O)O)nn2)c1 [Compound No. 220, (S)-18-(1-(2-(4-((3-(2-carboxy-1-cyclopropylethyl)phenoxy)methyl)-2′-fluoro-5′-methoxy-[1,1′-biphenyl]-2-yl)propan-2-yl)-1H-1,2,3-triazol-4-yl)octadecanoic acid] | 5.30 to 6.00 |
| CC[C@H](CC(=O)O)c1cccc(OCc2ccc(-c3cc(OC)ccc3F)c(OCc3cn(CCCCCCCCCCCCCCCCCC(=O)O)nn3)c2)c1 [Compound No. 212] | ≤ 5.30 |
| (2S,2'S,3R,3′R)-3,3′-((2R,2′R)-2,2′-(1,1′-(((1,1′-(26-(2-(bis(3-((2-aminoethyl)amino)-3-oxopropyl)amino) ethyl)-18,23,29,34-tetraoxo-19,22,26,30,33-pentaazahenpentacontane-1,51-diyl)bis(1H-1,2,3-triazole-4,1-diyl))bis(2-(trifluoromethoxy)-5,1-phenylene))bis(methylene))bis (piperidine-4,1-diyl))bis(chroman-7,2-diyl))bis(3-cyclopropyl-2-methylpropanoic acid) [compound 203] | 6.60 to 7.30 |
| C#CCOCC(C)(C)c1cc(COc2cccc([C@@H](CC(=O)O)C3CC3)c2)ccc1-c1cc(OC)ccc1F [Compound No. 228, (S)-3-cyclopropyl-3-(3-((2′-fluoro-5′-methoxy-2-(2-methyl-1-(prop-2-yn-1-yloxy)propan-2-yl)-[1,1′-biphenyl]-4-yl)methoxy)phenyl)propanoic acid] | 6.60 to 7.30 |
| COc1ccc(F)c(-c2ccc(COc3cccc([C@@H](CC(=O)O)C4CC4)c3)cc2C(C)(C)Cn2cc(CCCCCCCCCCCCCCCCCC(=O)O)nn2)c1 [Compound No. 226, (S)-18-(1-(2-(4-((3-(2-carboxy-1-cyclopropylethyl)phenoxy)methyl)-2′-fluoro-5′-methoxy-[1,1′-biphenyl]-2-yl)-2-methylpropyl)-1H-1,2,3-triazol-4-yl)octadecanoic acid] | 6.60 to 7.30 |
| COc1ccc(F)c(-c2ccc(COc3cccc([C@@H](CC(=O)O)C4CC4)c3)cc2C(C)(C)c2cn(CCCCCCCCCCCCCCCCCC(=O)O)nn2)c1 [Compound No. 221, (S)-18-[4-(1-{4-[3-(2-Carboxy-1-cyclopropyl-ethyl)-phenoxymethyl]-2′-fluoro-5′-methoxy-biphenyl-2-yl}-1-methyl-ethyl)-[1,2,3]triazol-1-yl]-octadecanoic acid] | 6.00 to 6.60 |

Next, values leading:

| pEC50 | Compound |
| --- | --- |
| 6.00 to 6.60 | CCCCCCn1cc(COCC(C)(C)c2cc(COc3cccc([C@@H](CC(=O)O)C4CC4)c3)ccc2-c2cc(OC)ccc2F)nn1 [Compound No. 229, (S)-3-cyclopropyl-3-(3-((2′-fluoro-2-(1-((1-hexyl-1H-1,2,3-triazol-4-yl)methoxy)-2-methylpropan-2-yl)-5′-methoxy-[1,1′-biphenyl]-4-yl)methoxy)phenyl) propanoic acid] |
| 7.30 to 9.00 | CCCCCCc1cn(CCCCCOC(c2cc(COc3cccc([C@@H](CC(=O)O)C4CC4)c3)ccc2-c2cc(OC)ccc2F)C(C)(C)C)nn1 (stereo partly shown) [Compound No. 233] |
| ≤ 5.30 | COC(=O)CCCCCCCCCCCCCCCCCn1cc(COCC(C)(C)c2cc(COc3cccc([C@@H](CC(=O)O)C4CC4)c3)ccc2-c2cc(OC)ccc2F)nn1 [Compound No. 231, (S)-3-cyclopropyl-3-(3-((2′-fluoro-5′-methoxy-2-(1-((1-(18-methoxy-18-oxooctadecyl)-1H-1,2,3-triazol-4-yl)methoxy)-2-methylpropan-2-yl)-[1,1′-biphenyl]-4-yl)methoxy)phenyl)propanoic acid] |

— US20240002354A1, “ANTIDIABETIC COMPOUNDS AND COMPOSITIONS” (REZUBIO PHARMACEUTICALS CO., LTD, priority 2020, published 2024)
